The text below walks through data of US20080170990A1, “Methods for Myocardial Imaging in Patients Having a History of Pulmonary Disease” (CV THERAPEUTICS, INC., priority 2006, published 2008).

The structures appear in SMILES notation. Bounds are passed on as bounds.

The series deals with AMP-sensitive subjects with mild or moderate asthma. Nature of the series: Double-blind placebo-controlled cross-over study of pulmonary function in AMP-sensitive asthma (Examples 9, 11). The series is classed as in vivo, human. The method, then: The primary objective was to compare the incidence of bronchoconstrictive reactions, defined as reduction from baseline in FEV1 of >15% within 2 hours following an intravenous (iv) bolus of 400 micrograms of Regadenoson or matching placebo.
Men or women ≧18 years of age with a diagnosis of mild or moderate asthma as documented by clinical history and pulmonary function test were considered for inclusion. The target was to enrolled 48 evaluable subjects: 24 mild and 24 moderate asthma subjects. […] Patients were not permitted short-acting bronchodilators for >6 hours and long-acting bronchodilators and methylxanthines for >24 hours prior to AMP, Regadenoson, or placebo.
AMP (adenosine 5′-monophosphate sodium salt) was used as an indirect bronchoconstrictor stimulus to select a group of susceptible subjects with adenosine-mediated bronchial hyperreactivity. A standard clinical protocol utilized by the investigative site for the inhalation of AMP for the purpose of provoking a bronchoconstrictor response in the airways was adopted for screening of all subjects. On arrival in the unit, subjects were required to rest for 15 minutes before assessment of lung function at baseline, measured as the best of 3 technically acceptable recordings of FEV1 taken at 1-minute intervals. Subject inhaled a series of five breaths of saline as control, followed by a breath of each increasing concentration of AMP at 3-minute intervals. Two measurements of FEV1 were to be made 90 and 150 seconds after each saline inhalation. The highest FEV1 value was to be recorded. Unless a fall in FEV1 of >10% from the baseline value was observed, subjects then inhaled increasing doubling concentrations of AMP (starting at 0.39 mg/mL) until a ≧20% decrease of FEV1 from the post-saline value was recorded. FEV1 was to be recorded at 90 and 150 seconds after each concentration was administered.
Subjects received 400 μg Regadenoson or placebo administered as an intravenous (iv) bolus in a double-blind cross-over design. Repeated measurements of FEV1 as an assessment of bronchoconstriction were performed before and for up to 2 hours after study drug administration.
Two similar randomized, double-blind, placebo (PLC)-controlled crossover trials were conducted, one in asthmatics with a positive adenosine monophosphate (AMP) challenge (a validated marker of airway inflammation) and one in patients with moderate or several chronic obstructive pulmonary disease (COPD). In both studies, short-acting bronchodilators were held prior to and for the 120 minute time frame study drug treatment during which spirometry was repeatedly assessed.

`CNC(=O)c1cnn(-c2nc(N)c3ncn([C@@H]4O[C@H](CO)[C@@H](O)[C@H]4O)c3n2)c1` [Regadenoson, (1-{9-[(4S,2R,3R,5R)-3,4-dihydroxy-5-(hydroxymethyl)oxolan-2-yl]-6-aminopurin-2-yl}pyrazol-4-yl)-N-methylcarboxamide]: under “400 μg iv bolus”, the “incidence of chest discomfort” value amounted to 21%, the incidence of dizziness is 53%, the incidence of dyspnea amounted to 34% and the incidence of flushing came to 32%. Further, where the note is “400 μg iv bolus”, the incidence of headache amounted to 45%, the incidence of nausea came out at 19%, the incidence of paraesthesia is listed as 19% and the incidence of tachycardia turned out to be 66%. The “time for HR to return to within 5 bpm of baseline” value (400 μg iv bolus) is ≤ 60 min. In addition, the “maximum increase in HR” value (400 μg iv bolus, compared with placebo) is “+10.4 bpm”. Also, for the setting “400 μg iv bolus, placebo 8%”, the “incidence of adverse events” value is given as 98%. Also, under “asthma study”, the “incidence of dyspnea following REG” value stood at 34%. For the same compound, under “asthma study N=48”, the “Number of patients with FEV1 decline by >20% over 120 min” value is reported as 1 REG, 0 PLC; the “Number of patients with FEV1 decline by >30% over 120 min” value was 1 REG, 0 PLC; the “Number of patients with use of acute oxygen or short-acting bronchodilators” value is 0 REG, 0 PLC. Moreover, the “mean FEV1, all post-bolus time points combined” value (asthma study N=48, p = 0.17 vs PLC) was 3.33 (0.9)L REG. Moreover, for the setting “asthma study N=48, p = 0.99”, the “Number of patients with FEV1 decline by >15% over 120 min” value was 2 REG, 2 PLC. Besides, where the note is “mild asthma (n=24), 400 μg iv bolus”, the “subjects with bronchoconstriction (FEV1 reduction >15% within 2 hours)” value is on record as “None”. Under “moderate asthma (n=24), 400 μg iv bolus”, the “number of subjects having bronchoconstriction (FEV1 reduction >15% within 2 hours)” value amounted to 2.
